Reference: ChEMBL document CHEMBL4177602, “Zaluzanin C (ZC) induces osteoblast differentiation through regulating of osteogenic genes expressions in early stage of differentiation” (Bioorg Med Chem Lett, 2017)
Calls of active or inactive are those of the source. The rule behind the calls is not given here.

Assays:
C3H 10T1/2 [1] = assay: Cytotoxicity against mouse C3H10T1/2 cells assessed as reduction in cell viability at >10 uM after 24 hrs by MTT assay; assay type: cell-based; conditions: c3h 10t1/2, 24 h
C3H 10T1/2 [2] = assay: Induction of osteoblast differentiation in mouse C3H10T1/2 cells assessed as increase in Runx2 mRNA expression at 5 uM after 2 days by qPCR analysis; assay type: functional, cell-based
C3H 10T1/2 [3] = assay: Induction of osteoblast differentiation in mouse C3H10T1/2 cells assessed as increase in Runx2 protein level at 5 uM after 2 days by Western blot analysis; assay type: functional, cell-based
MC3T3-E1 [4] = assay: Induction of mineralization in mouse MC3T3-E1 cells at 5 uM after 14 days by alizarin red S staining based assay; assay type: functional, cell-based
C3H 10T1/2 [5] = assay: Induction of osteoblast differentiation in mouse C3H10T1/2 cells assessed as increase in Id1 mRNA expression at 5 uM after 2 days by qPCR analysis; assay type: functional, cell-based
MC3T3-E1 [6] = assay: Induction of osteoblast differentiation in mouse MC3T3-E1 cells assessed as increase in ALP activity at 5 uM after 4 days in presence of ascorbic acid/beta-GP BCIP/NBT liquid substrate based assay; assay type: functional, cell-based
MC3T3-E1 [7] = assay: Increase in Runx2 (unknown origin) promoter activity expressed in mouse MC3T3-E1 cells at 5 uM after 48 hrs by luciferase reporter gene assay; assay type: cell-based
[8] = Increase in Runx2 (unknown origin) promoter activity expressed in mouse C3H10T1/2 cells at 5 uM after 48 hrs by luciferase reporter gene assay; assay type: cell-based
MC3T3-E1 [9] = assay: Induction of osteoblast differentiation in mouse MC3T3-E1 cells assessed as increase in Id1 mRNA expression at 5 uM after 2 days by RT-PCR analysis; assay type: functional, cell-based
MC3T3-E1 [10] = assay: Induction of osteoblast differentiation in mouse MC3T3-E1 cells assessed as increase in ALP activity at 5 uM after 4 days BCIP/NBT liquid substrate based assay; assay type: functional, cell-based
MC3T3-E1 [11] = assay: Induction of osteoblast differentiation in Runx2 knockdown mouse MC3T3-E1 cells assessed as increase in ALP activity at 5 uM after 4 days BCIP/NBT liquid substrate based assay; assay type: functional, cell-based
MC3T3-E1 [12] = assay: Cytotoxicity against mouse MC3T3-E1 cells assessed as reduction in cell viability at 1 to 5 uM after 24 hrs by MTT assay; assay type: cell-based; conditions: mc3t3-e1, 24 h
C3H 10T1/2 [13] = assay: Induction of osteoblast differentiation in mouse C3H10T1/2 cells assessed as increase in Id1 mRNA expression at 5 uM after 2 days by RT-PCR analysis; assay type: functional, cell-based
C3H 10T1/2 [14] = assay: Cytotoxicity against mouse C3H10T1/2 cells assessed as reduction in cell viability at 1 to 5 uM after 24 hrs by MTT assay; assay type: cell-based; conditions: c3h 10t1/2, 24 h
C3H 10T1/2 [15] = assay: Induction of osteoblast differentiation in mouse C3H10T1/2 cells assessed as increase in Dlx5 mRNA expression at 5 uM after 2 days by qPCR analysis; assay type: functional, cell-based
MC3T3-E1 [16] = assay: Cytotoxicity against mouse MC3T3-E1 cells assessed as reduction in cell viability at >10 uM after 24 hrs by MTT assay; assay type: cell-based; conditions: mc3t3-e1, 24 h
C3H 10T1/2 [17] = assay: Induction of osteoblast differentiation in mouse C3H10T1/2 cells assessed as increase in Runx2 mRNA expression at 5 uM after 2 days by RT-PCR analysis; assay type: functional, cell-based
MC3T3-E1 [18] = assay: Induction of osteoblast differentiation in mouse MC3T3-E1 cells assessed as increase in Id1 mRNA expression at 5 uM after 2 days by qPCR analysis; assay type: functional, cell-based
MC3T3-E1 [19] = assay: Induction of osteoblast differentiation in mouse MC3T3-E1 cells assessed as increase in Runx2 mRNA expression at 5 uM after 2 days by RT-PCR analysis; assay type: functional, cell-based
MC3T3-E1 [20] = assay: Induction of mineralization in mouse MC3T3-E1 cells at 5 uM after 14 days in presence of ascorbic acid/beta-GP by alizarin red S staining based assay; assay type: functional, cell-based
MC3T3-E1 [21] = assay: Induction of osteoblast differentiation in mouse MC3T3-E1 cells assessed as increase in Dlx5 mRNA expression at 5 uM after 2 days by qPCR analysis; assay type: functional, cell-based
MC3T3-E1 [22] = assay: Induction of osteoblast differentiation in mouse MC3T3-E1 cells assessed as increase in Dlx5 mRNA expression at 5 uM after 2 days by RT-PCR analysis; assay type: functional, cell-based
MC3T3-E1 [23] = assay: Induction of osteoblast differentiation in mouse MC3T3-E1 cells assessed as increase in Runx2 protein level at 5 uM after 2 days by Western blot analysis; assay type: functional, cell-based
C3H 10T1/2 [24] = assay: Induction of osteoblast differentiation in mouse C3H10T1/2 cells assessed as increase in Dlx5 mRNA expression at 5 uM after 2 days by RT-PCR analysis; assay type: functional, cell-based
MC3T3-E1 [25] = assay: Induction of osteoblast differentiation in mouse MC3T3-E1 cells assessed as increase in Runx2 mRNA expression at 5 uM after 2 days by qPCR analysis; assay type: functional, cell-based

## C=C1[C@@H]2[C@H]3OC(=O)C(=C)[C@@H]3CCC(=C)[C@@H]2C[C@@H]1O [ZALUZANIN C]
C3H 10T1/2 [1]
  Activity: Toxic
C3H 10T1/2 [2]
  Activity: Active
C3H 10T1/2 [3]
  Activity: Active
MC3T3-E1 [4]
  Activity: Active
C3H 10T1/2 [5]
  Activity: Active
MC3T3-E1 [6]
  Activity: Active
MC3T3-E1 [7]
  Activity: Active
[8]
  Activity: Active
MC3T3-E1 [9]
  Activity: Active
MC3T3-E1 [10]
  Activity: Active
MC3T3-E1 [11]
  Activity: inactive
MC3T3-E1 [12]
  Activity: Non-Toxic
C3H 10T1/2 [13]
  Activity: Active
C3H 10T1/2 [14]
  Activity: Non-Toxic
C3H 10T1/2 [15]
  Activity: Active
MC3T3-E1 [16]
  Activity: Toxic
C3H 10T1/2 [17]
  Activity: Active
MC3T3-E1 [18]
  Activity: Active
MC3T3-E1 [19]
  Activity: Active
MC3T3-E1 [20]
  Activity: Active
MC3T3-E1 [21]
  Activity: Active
MC3T3-E1 [22]
  Activity: Active
MC3T3-E1 [23]
  Activity: Active
C3H 10T1/2 [24]
  Activity: Active
MC3T3-E1 [25]
  Activity: Active
